pEC50: −log10 of the molar value.
Columns and labels:
[1] = biological target: T1, RORγ-LBD (Homo sapiens, UniProt P51449); assay: RORγ-Ligand Binding Domain (LBD) TR-FRET Assay; assay type: biochemical;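 as to TR-FRET Assay Max Response: 665/615 nm ratio relative to signal without ursolic acid or compound set at 100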
T1 construct: made in house; host or cells: SF9 cells (baculovirus)
T1 sequence (P51449 269-508 limits assumed): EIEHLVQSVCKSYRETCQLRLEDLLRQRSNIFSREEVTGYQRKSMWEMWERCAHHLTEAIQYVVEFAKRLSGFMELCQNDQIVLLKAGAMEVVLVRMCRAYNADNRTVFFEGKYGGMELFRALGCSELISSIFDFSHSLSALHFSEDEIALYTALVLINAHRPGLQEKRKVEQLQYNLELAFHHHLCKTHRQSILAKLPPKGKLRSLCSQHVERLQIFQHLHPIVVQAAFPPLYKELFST
Method in brief: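 SF9 lysate containing His-RORγ-LBD, ~3 nM final; coactivator peptide biotin-SRC1 LXXLL, 200 nM final; ursolic acid 2 μM final; DMSO 1% final; Tris pH 7.0 buffer with KCl, EDTA, DTT, BSA. TR-FRET format.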

[2] = biological target: T2, Gal4-RORγ-LBD (Homo sapiens, UniProt P51449); assay: Gal4-RORγ Luciferase Reporter Assay in HEK-293T Cells; assay type: cell-based; details: HEK-293 cells
T2 construct: expressed in transfected cells; host or cells: HEK-293 cells (pcDNA3.1neo plasmid)
T2 sequence (P51449 269-508 limits assumed): T1 sequence (P51449 269-508 limits assumed)
Method in brief: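 In transfected HEK-293 cells (Gal4-RORγ-LBD, Gal4-luciferase), test agents with 2 μM ursolic acid were incubated overnight at 37 °C before luminescent detection. Values are relative to the ursolic-acid-free, compound-free signal (100).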

[3] = luciferase reporter, with 2 μM ursolic acid

pEC50 [1] | pEC50 [2, 3] | pEC50 ([2]; 2 μM ursolic acid) | Compound | TR-FRET Assay Max Response [1] | Gal4-RORγ Assay Max Response [2, 3] | Gal4-RORγ Assay Max Response ([2]; 2 μM ursolic acid)
> 6.30 | > 6.30 |  | COc1cc(F)cc(-c2ccc3c(c2)N(S(=O)(=O)c2cccc(C(F)(F)F)c2)C[C@H](CC(C)(C)C(=O)O)O3)c1F [Compound 32C, (S)-3-(6-(2,5-difluoro-3-methoxyphenyl)-4-((3-(trifluoromethyl)phenyl)sulfonyl)-3,4-dihydro-2H-benzo[b][1,4]oxazin-2-yl)-2,2-dimethylpropanoic acid] | **** (The symbol “****” indicates a value greater than 200) | ** (The symbol “**” indicates a value in the range of greater than 90 to 150) | 
> 6.30 | > 6.30 |  | Cc1c(F)cccc1-c1ccc2c(c1)N(S(=O)(=O)c1cccc(C(F)(F)F)c1)C[C@H](CCC(=O)O)O2 [Compound 4AG, (S)-3-(6-(3-fluoro-2-methylphenyl)-4-((3-(trifluoromethyl)phenyl)sulfonyl)-3,4-dihydro-2H-benzo[b][1,4]oxazin-2-yl)propanoic acid] | **** (The symbol “****” indicates a value greater than 200) | ** (The symbol “**” indicates a value in the range of greater than 90 to 150) | 
> 6.30 | 5.30 to 6.30 |  | COc1cccc(-c2ccc3c(c2)N(S(=O)(=O)c2cccc(C(F)(F)F)c2)C[C@H](CCC(=O)O)O3)n1 [Compound 4E, (S)-3-(6-(6-methoxypyridin-2-yl)-4-((3-(trifluoromethyl)-phenyl)sulfonyl)-3,4-dihydro-2H-benzo[b][1,4]oxazin-2-yl)propanoic acid] | **** (The symbol “****” indicates a value greater than 200) | ** (The symbol “**” indicates a value in the range of greater than 90 to 150) | 
5.30 to 6.30 |  | < 5.00 | Cn1cc(C(=O)NC[C@H]2CN(S(=O)(=O)c3cccc(C(F)(F)F)c3)c3cc(-c4cccc(C(F)(F)F)n4)ccc3O2)c(C(F)(F)F)n1 [Compound 30BN, (S)-1-methyl-3-(trifluoro-methyl)-N-((4-((3-(trifluoro-methyl)phenyl)sulfonyl)-6-(6-(trifluoromethyl)pyridin-2-yl)-3,4-dihydro-2H-benzo[b][1,4]-oxazin-2-yl)methyl)-1H-pyrazole-4-carboxamide] | *** (The symbol “***” indicates a value in the range of greater than 150 to 200) |  | * (The symbol “*” indicates a value in the range of 25 to 90)
> 6.30 | > 6.30 |  | CC(C)(CC[C@H]1CN(S(=O)(=O)c2cccc(C(F)(F)F)c2)c2cc(-c3cc(F)ccc3F)ccc2O1)C(=O)O [Compound 32A, (S)-4-(6-(2,5-difluorophenyl)-4-((3-(trifluoromethyl)phenyl)-sulfonyl)-3,4-dihydro-2H-benzo[b][1,4]oxazin-2-yl)-2,2-dimethylbutanoic acid] | **** (The symbol “****” indicates a value greater than 200) | ** (The symbol “**” indicates a value in the range of greater than 90 to 150) | 
5.30 to 6.30 |  | 5.30 to 6.30 | CC(C)(C(=O)NC[C@H]1CN(S(=O)(=O)c2cccc(C(F)(F)F)c2)c2cc(-c3cccc(C(F)(F)F)n3)ccc2O1)C(F)(F)F [Compound 30BY, (S)-3,3,3-trifluoro-2,2-dimethyl-N-((4-((3-(trifluoromethyl)-phenyl)sulfonyl)-6-(6-(trifluoro-methyl)pyridin-2-yl)-3,4-dihydro-2H-benzo[b][1,4]-oxazin-2-yl)methyl)propanamide] | *** (The symbol “***” indicates a value in the range of greater than 150 to 200) |  | * (The symbol “*” indicates a value in the range of 25 to 90)
> 6.30 | > 6.30 |  | O=C(CC1CC1)NC[C@H]1CN(S(=O)(=O)c2cccc(C(F)(F)F)c2)c2cc(-c3cc(F)ccc3F)ccc2O1 [Compound 30AB, (S)-2-cyclopropyl-N-((6-(2,5-difluorophenyl)-4-((3-(trifluoromethyl)phenyl)sulfonyl)-3,4-dihydro-2H-benzo[b][1,4]oxazin-2-yl)methyl)acetamide] | **** (The symbol “****” indicates a value greater than 200) | * (The symbol “*” indicates a value in the range of 25 to 90) | 
> 6.30 | 5.30 to 6.30 |  | O=C(NC[C@H]1CN(S(=O)(=O)c2cccc(C(F)(F)F)c2)c2cc(-c3cc(F)ccc3F)ccc2O1)c1cn[nH]c1 [Compound 30AC, (S)-N-((6-(2,5-difluorophenyl)-4-((3-(trifluoromethyl)phenyl)-sulfonyl)-3,4-dihydro-2H-benzo[b][1,4]oxazin-2-yl)methyl)-1H-pyrazole-4-carboxamide] | **** (The symbol “****” indicates a value greater than 200) | * (The symbol “*” indicates a value in the range of 25 to 90) | 
5.30 to 6.30 | < 5.00 |  | Cc1ccc(N(C)C)nc1-c1ccc2c(c1)N(S(=O)(=O)c1cccc(C(F)(F)F)c1)C[C@H](CCC(=O)O)O2 [Compound 4AO, (S)-3-(6-(6-(dimethylamino)-3-methylpyridin-2-yl)-4-((3-(trifluoromethyl)phenyl)sul-fonyl)-3,4-dihydro-2H-benzo[b][1,4]oxazin-2-yl)propanoic acid] | * (The symbol “*” indicates a value in the range of 25 to 90) | * (The symbol “*” indicates a value in the range of 25 to 90) | 
> 6.30 |  | > 6.30 | O=C(O)C1(C[C@H]2CN(S(=O)(=O)c3cccc(C(F)(F)F)c3)c3cc(-c4cccc(C(F)(F)F)n4)ccc3O2)CCC1 [Compound 32BL, (S)-l-((4-((3-(trifluoromethyl)-phenyl)sulfonyl)-6-(6-(trifluoro-methyl)pyridin-2-yl)-3,4-dihydro-2H-benzo[b][1,4]oxazin-2-yl)methyl)cyclobutane-1-carboxylic acid] | ** (The symbol “**” indicates a value in the range of greater than 90 to 150) |  | * (The symbol “*” indicates a value in the range of 25 to 90)

Further lines, the compound ahead of its results:

Compound | pEC50 [1] | pEC50 [2, 3] | pEC50 ([2]; 2 μM ursolic acid) | TR-FRET Assay Max Response [1] | Gal4-RORγ Assay Max Response [2, 3] | Gal4-RORγ Assay Max Response ([2]; 2 μM ursolic acid)
O=C(O)CC[C@H]1CN(S(=O)(=O)c2cccc(C(F)(F)F)c2)c2cc(-c3cc(C(F)(F)F)ccn3)ccc2O1 [Compound 3, (S)-3-(4-((3-(trifluoromethyl)phenyl)sulfonyl)-6-(4-(trifluoromethyl)pyridin-2-yl)-3,4-dihydro-2H-benzo[b][1,4]oxazin-2-yl)propanoic acid] | > 6.30 | 5.30 to 6.30 |  | *** (The symbol “***” indicates a value in the range of greater than 150 to 200) | *** (The symbol “***” indicates a value in the range of greater than 150 to 200) | 
O=C(O)CC[C@H]1CN(S(=O)(=O)c2cccc(C(F)(F)F)c2)c2cc(-c3cc(F)ccc3Cl)ccc2O1 [Compound 2AI, (S)-3-(6-(2-chloro-5-fluoro-phenyl)-4-((3-(trifluoromethyl)-phenyl)sulfonyl)-3,4-dihydro-2H-benzo[b][1,4]oxazin-2-yl)propanoic acid] | > 6.30 |  |  | **** (The symbol “****” indicates a value greater than 200) | ** (The symbol “**” indicates a value in the range of greater than 90 to 150) | 
CC(=O)N1CC(C[C@H]2CN(S(=O)(=O)c3cccc(C(F)(F)F)c3)c3cc(-c4cc(F)cc(OC(F)F)c4)ccc3O2)C1 [Compound 61, (S)-1-(3-((6-(3-(difluoromethoxy)-5-fluorophenyl)-4-((3-(trifluoromethyl)phenyl)sulfonyl)-3,4-dihydro-2H-benzo[b][1,4]oxazin-2-yl)methyl)azetidin-1-yl)ethan-1-one] | > 6.30 |  | > 6.30 | *** (The symbol “***” indicates a value in the range of greater than 150 to 200) |  | ** (The symbol “**” indicates a value in the range of greater than 90 to 150)
O=C(O)[C@@H]1C[C@H]1[C@H]1CN(S(=O)(=O)c2cccc(C(F)(F)F)c2)c2cc(-c3cc(F)ccc3F)ccc2O1 [Compound 53, (1R,2R)-2-((S)-6-(2,5-difluorophenyl)-4-((3-(trifluoromethyl)phenyl)sulfonyl)-3,4-dihydro-2H-benzo[b][1,4]oxazin-2-yl)cyclopropane-1-carboxylic acid] | > 6.30 |  | > 6.30 | ** (The symbol “**” indicates a value in the range of greater than 90 to 150) |  | ** (The symbol “**” indicates a value in the range of greater than 90 to 150)
CC(C)Oc1cccc(-c2ccc3c(c2)N(S(=O)(=O)c2cccc(C(F)(F)F)c2)C[C@H](CCC(=O)O)O3)c1 [Compound 2AV, (S)-3-(6-(3-isopropoxyphenyl)-4-((3-(trifluoromethyl)phenyl)-sulfonyl)-3,4-dihydro-2H-benzo[b][1,4]oxazin-2-yl)propanoic acid] | > 6.30 | 5.30 to 6.30 |  | **** (The symbol “****” indicates a value greater than 200) | * (The symbol “*” indicates a value in the range of 25 to 90) | 
